From patent US20130165475A1, “DEUTERIUM-ENRICHED HETEROCYCLIC COMPOUNDS AS KINASE INHIBITORS” (ASCEPION PHARMACEUTICALS, INC., priority 2010, published 2013)

How the values were obtained:
[1] = Oral bioavailability study, Group 2 (rats); format: in vivo, male SD rat
Protocol: Oral pharmacokinetic studies on rats were performed on Example 2, this compound was dissolved in PEG-400 (2:1 mixture of PEG400 and 0.01N HCL (v/v)) and administered orally to male SD rat at a dose of 50 mg/kg. Rat blood was obtained from tail vein at 0.25, 0.5, 1, 2, 3, 4, 6, 8, 12, and 24 hours after administration. The blood concentration of Example 2 was determined using appropriate internal standards and reverse phase HPLC with UV detection. Control blood samples were also run to identify compound-specific peaks. The oral bioavailability was determined by comparing the dose corrected areas under plasma-concentration time curve (AUC) to infinity for Example 2, given orally and intravenously in rats.

BEL7404 = assay: In vivo anti-tumor efficacy, BEL7404 xenograft; design: species or system human; conditions: Liver cancer, BEL7404 s.c. in nu/nu Balb/c athymic mice, 50 mg/kg once per day oral gavage
[2] = system: MKN-45 human gastric cancer cells; assay: In vivo anti-tumor efficacy, MKN-45 xenograft; conditions: MKN-45 s.c. in nu/nu Balb/c athymic mice, 50 mg/kg once per day oral gavage
Protocol: (§1) Female (nu/nu) Balb/c athymic mice at 4-6 weeks of age were injected subcutaneously (s.c.) with MDA-MB-231 human breast cancer cells, A549 human non-small cell lung cancer cells, BEL7401 human liver cancer cells, HT-29 human colon cancer cells, or MKN-45 human gastric cancer cells (ATCC, 5×10^6 cells suspended in 100 μl DMEM medium). Treatment was initiated after the tumor mass grown from subcutaneous implanted tumor cells reaches a median volume of 200-400 mm^3. Mice were randomized into groups with three in each group such that the median tumor volume is nearly equal among all groups. […] Tumor volumes were assessed at least twice weekly by caliper measurement from the start of treatment. Tumor volume was calculated using the formula ½×L×W^2 (L: length of tumor's long axis, W: length of tumor's short axis). […] The efficacy of compounds in reducing tumor growth was assessed by the index Tumor Growth Inhibition (TGI). TGI for a given treatment period was calculated using the group mean tumor volumes according to the formula: TGI=100×(Vvehicle—group−VTreatment—group)÷VVehicle—group wherein VVehicle—group representing the mean tumor volume for the group treated with vehicle and VTreatment—group representing the mean tumor volume of the group treated with a compound.

[3] = system: HT-29 human colon cancer cells; assay: In vivo anti-tumor efficacy, HT-29 xenograft; conditions: HT-29 s.c. in nu/nu Balb/c athymic mice, 50 mg/kg once per day oral gavage
Protocol: as §1

[4] = system: MDA-MB-231 human breast cancer cells; assay: In vivo anti-tumor efficacy, MDA-MB-231 xenograft; conditions: MDA-MB-231 s.c. in nu/nu Balb/c athymic mice, 50 mg/kg once per day oral gavage
Protocol: as §1

[5] = system: A549 human non-small cell lung cancer cells; assay: In vivo anti-tumor efficacy, A549 xenograft; conditions: A549 s.c. in nu/nu Balb/c athymic mice, 50 mg/kg once per day oral gavage
Protocol: as §1

Cl.[2H]C([2H])(c1ccnc(N)c1)n1ccc2c(NC(=O)Nc3cc(Cl)ccc3OC)cccc21 [Example 2, 1-[1-[(2-amino-4-pyridyl)-dideuteriomethyl]indol-4-yl]-3-(5-chloro-2-methoxyphenyl)urea hydrochloride]
bioavailability ([1]; plasma, male SD rat, 50 mg/kg oral, AUC to infinity oral vs intravenous): > 67%
amount detected in blood after oral dosing ([1]; rat study, 0.25 hours after 50 mg/kg oral dosing): substantial amounts
half-life ([1]; whole blood, male SD rat, 50 mg/kg oral): 2 to 3 h
Tumor Growth Inhibition (TGI) (BEL7404): A (the TGI is greater or equal to 50%)
Tumor Growth Inhibition (TGI) [2]: A (the TGI is greater or equal to 50%)
Tumor Growth Inhibition (TGI) [3]: A (the TGI is greater or equal to 50%)
Tumor Growth Inhibition (TGI) [4]: A (the TGI is greater or equal to 50%)
Tumor Growth Inhibition (TGI) [5]: A (the TGI is greater or equal to 50%)
